Assay results from patent US8207119B2, “Ophthalmological composition” (Nihon Tenganyaku Kenkyusho Co., Ltd., priority 2002, dated 2012).

How the values were obtained:
[1] = system: rabbit corneal wound model; experiment: Corneal wound healing promotion action 1 (in vivo), approx. 6 mm corneal epithelial abrasion; design: species or system Japanese white rabbit; settings: 5 μM eye drop, 30 μl per instillation; 0 hr after abrasion; mean ± SD, n=6
Description: (2) Corneal Wound Healing Promotion Action 1 (In Vivo)
Using a male Japanese white rabbit, a wound of approximately 6 mm in diameter was produced in the cornea by inducing corneal epithelial abrasion in accordance with the method of Cintron et al. (Ophthalmic Res., 11, pp. 90-96 (1979)). The wound area was measured using the fluorescein-stained area as an index. The effects of the test compound on corneal wound healing were examined.
The eye drops containing the respective concentrations of the test compound were instilled (30 μl at a time) at 0, 3, 6, 9, 12, 18, 24, 27, 30, 33, 36, 42, and 48 hours after inducing corneal epithelial abrasion. In measuring the wound area, fluorescein staining was carried out and a photograph of the cornea was measured. The fluorescein-stained area of the photographed cornea was computed using an image analysis processing system.
(§1) In Tables 1 and 2, the respective values indicate the mean value±standard deviation (n=6). Statistical analysis was carried out using Dunnett's multiple comparison with respect to PBS with the area of the corneal wound portion immediately after (0 hours after) corneal epithelial abrasion being set to 100% (*p<0.05, **p<0.01; vs. control).

[2] = system: rabbit corneal wound model; experiment: Corneal wound healing promotion action 2 (in vivo), approx. 8 mm corneal epithelial abrasion; design: species or system Japanese white rabbit; settings: 0.3% eye drop, 25 μl per instillation; 0 hr after abrasion; mean ± SD, n=6
Description: (3) Corneal Wound Healing Promotion Action 2 (In vivo)
Using the same method as (2) above, corneal epithelial abrasion was induced in a Japanese white rabbit to produce a wound of approximately 8 mm in diameter in the cornea. The wound area was measured using the fluorescein-stained area as an index to examine the effects on corneal wound healing.
The eye drops containing the respective concentrations of the test compound were instilled (25 μl at a time) at 0, 6, 12, 18, 24, 30, 36, 42, 48, and 54 hours after induction corneal epithelial abrasion. In measuring the wound area, fluorescein staining was carried out and a photograph of the cornea was measured. The fluorescein-stained area of the photographed cornea was computed using an image analysis processing system.
as §1, with “Tables 3” for “Tables 1”, “and 4,” for “and 2,”, “to physiological saline” for “to PBS”

Substance: EGF: polypeptide with a molecular weight of 6000, mitosis-promoting growth factor for corneal epithelium (NSDSECPLSHDGYCLHDGVCMYIEALDKYACNCVVGYIGERCQYRDLKWWELR; Epidermal growth factor; UniProt P01133 971-1023, looked up)
- Healing ratio (%) [1]: 0%

Substance: hyaluronic acid
- Healing ratio (%) [2]: 0%
